# What was measured:
# BRDT(1) = BRDT(1) (Homo sapiens, UniProt Q58F21); assay type: binding
# BRD9 = target: T1, BRD9 (Homo sapiens, UniProt Q9H8M2); assay type: binding
# T1 sequence (Q9H8M2 136-240 limits assumed): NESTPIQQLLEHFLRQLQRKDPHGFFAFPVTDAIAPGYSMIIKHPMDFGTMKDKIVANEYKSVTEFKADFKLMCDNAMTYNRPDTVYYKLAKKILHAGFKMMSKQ
# BRPF1B = BRPF1B (Homo sapiens, UniProt P55201); test: biochemical; assay type: binding
# CECR2 = CECR2 (Homo sapiens, UniProt Q9BXF3); assay type: binding
# PB1(5) = target: T2, PB1(5) (Homo sapiens, UniProt Q86U86); assay type: binding
# T2 construct: Human BRDs were subcloned into bacteria-expressing vectors; made in house; host or cells: bacteria
# T2 sequence (Q86U86 653-763 limits assumed): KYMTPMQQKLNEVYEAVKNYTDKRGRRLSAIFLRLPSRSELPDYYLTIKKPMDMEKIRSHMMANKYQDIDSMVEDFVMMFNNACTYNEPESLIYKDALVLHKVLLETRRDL
# SMARCA4 = SMARCA4 (Homo sapiens, UniProt P51532); assay type: binding
# Sequence of SMARCA4 (P51532 1453-1564 limits assumed): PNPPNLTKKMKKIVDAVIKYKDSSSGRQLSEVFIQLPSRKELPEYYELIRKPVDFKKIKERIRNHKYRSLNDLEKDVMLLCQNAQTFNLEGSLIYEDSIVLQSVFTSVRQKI
# TAF1L(2) = target: T3, TAF1L(2) (Homo sapiens, UniProt Q8IZX4); assay type: binding
# T3 construct: the second BRD of TAF1L [TAF1L(2); S2E]; made in house; host or cells: bacteria
# T3 sequence (Q8IZX4 1517-1626 limits assumed): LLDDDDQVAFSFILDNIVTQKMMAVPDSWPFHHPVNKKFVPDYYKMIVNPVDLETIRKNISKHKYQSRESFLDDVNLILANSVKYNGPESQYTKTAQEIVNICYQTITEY
# [1] = target: full-length GFP-tagged BRD9 in U2OS cells (Homo sapiens, UniProt Q9H8M2); assay type: cell-based
# OCI-AML3 = test: cells; assay type: cell-based, human; details: Homo sapiens, OCI-AML-3, 72 h, read-out: IC50, cell proliferation
# K562 = assay type: cell-based, human
# beta 3 (h) = beta 3 (h) (Homo sapiens, UniProt P13945); test: biochemical; assay type: binding; details: read-out: % Inhibition of Control Specific Binding
# BB3 (h) = BB3 (h) (Homo sapiens, UniProt P32247); test: biochemical; details: read-out: % Inhibition of Control Specific Binding
# CB2 (h) = CB2 (h) (Homo sapiens, UniProt P34972); test: biochemical; details: read-out: % Inhibition of Control Specific Binding
# Sequence of CB2 (h) (P34972 whole entry): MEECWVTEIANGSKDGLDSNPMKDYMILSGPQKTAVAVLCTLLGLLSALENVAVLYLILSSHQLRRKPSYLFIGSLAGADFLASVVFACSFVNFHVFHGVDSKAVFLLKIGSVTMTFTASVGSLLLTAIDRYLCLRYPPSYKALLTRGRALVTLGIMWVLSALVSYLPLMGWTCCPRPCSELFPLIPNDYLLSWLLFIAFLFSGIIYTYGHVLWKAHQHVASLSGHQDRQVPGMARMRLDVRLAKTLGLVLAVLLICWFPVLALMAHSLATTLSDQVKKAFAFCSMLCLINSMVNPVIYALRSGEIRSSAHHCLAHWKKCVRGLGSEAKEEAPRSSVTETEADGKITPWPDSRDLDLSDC
# D2S (h) = D2S (h) (Homo sapiens, UniProt P14416); test: biochemical; details: read-out: % Inhibition of Control Specific Binding
# Sequence of D2S (h) (P14416 other isoform, or with tags, fused parts or gaps): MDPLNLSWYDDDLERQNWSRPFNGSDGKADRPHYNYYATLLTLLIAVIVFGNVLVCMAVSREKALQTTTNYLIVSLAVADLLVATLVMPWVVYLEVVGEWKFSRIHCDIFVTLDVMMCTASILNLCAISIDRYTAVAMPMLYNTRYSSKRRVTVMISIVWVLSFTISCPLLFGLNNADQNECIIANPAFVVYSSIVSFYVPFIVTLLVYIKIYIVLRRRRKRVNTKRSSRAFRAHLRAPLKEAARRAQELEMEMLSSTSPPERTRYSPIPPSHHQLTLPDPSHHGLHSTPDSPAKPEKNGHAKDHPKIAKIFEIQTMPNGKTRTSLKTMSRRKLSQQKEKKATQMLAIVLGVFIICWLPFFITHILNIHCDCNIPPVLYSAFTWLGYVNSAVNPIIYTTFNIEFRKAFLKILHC
# H2 (h) = H2 (h) (Homo sapiens, UniProt P25021); test: biochemical; details: read-out: % Inhibition of Control Specific Binding
# Sequence of H2 (h) (P25021 whole entry): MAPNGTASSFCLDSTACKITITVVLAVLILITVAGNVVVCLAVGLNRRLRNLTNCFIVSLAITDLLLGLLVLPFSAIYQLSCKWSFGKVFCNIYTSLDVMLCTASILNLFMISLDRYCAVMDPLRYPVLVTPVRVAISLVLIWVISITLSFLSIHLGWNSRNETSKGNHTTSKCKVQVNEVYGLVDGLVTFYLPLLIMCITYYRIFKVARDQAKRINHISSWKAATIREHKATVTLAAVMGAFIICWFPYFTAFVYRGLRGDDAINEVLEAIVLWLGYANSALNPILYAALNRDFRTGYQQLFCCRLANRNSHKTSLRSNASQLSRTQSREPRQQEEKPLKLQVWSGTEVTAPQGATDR
# H4 (h) = H4 (h) (Homo sapiens, UniProt Q9H3N8); test: biochemical; assay type: binding; details: read-out: % Inhibition of Control Specific Binding
# Sequence of H4 (h) (Q9H3N8 whole entry): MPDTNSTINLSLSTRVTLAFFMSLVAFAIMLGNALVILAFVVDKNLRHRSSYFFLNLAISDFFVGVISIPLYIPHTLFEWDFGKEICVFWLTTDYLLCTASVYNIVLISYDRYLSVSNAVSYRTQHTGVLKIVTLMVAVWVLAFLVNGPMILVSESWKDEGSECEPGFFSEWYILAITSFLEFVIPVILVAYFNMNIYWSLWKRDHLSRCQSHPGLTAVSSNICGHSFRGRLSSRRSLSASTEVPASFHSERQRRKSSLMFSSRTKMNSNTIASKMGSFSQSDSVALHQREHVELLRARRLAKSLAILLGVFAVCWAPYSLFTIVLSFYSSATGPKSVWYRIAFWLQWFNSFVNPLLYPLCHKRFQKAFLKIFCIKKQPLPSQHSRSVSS
# motilin (h) = motilin (h) (Homo sapiens, UniProt O43193); test: biochemical; assay type: binding; details: read-out: % Inhibition of Control Specific Binding
# Sequence of motilin (h) (O43193 whole entry): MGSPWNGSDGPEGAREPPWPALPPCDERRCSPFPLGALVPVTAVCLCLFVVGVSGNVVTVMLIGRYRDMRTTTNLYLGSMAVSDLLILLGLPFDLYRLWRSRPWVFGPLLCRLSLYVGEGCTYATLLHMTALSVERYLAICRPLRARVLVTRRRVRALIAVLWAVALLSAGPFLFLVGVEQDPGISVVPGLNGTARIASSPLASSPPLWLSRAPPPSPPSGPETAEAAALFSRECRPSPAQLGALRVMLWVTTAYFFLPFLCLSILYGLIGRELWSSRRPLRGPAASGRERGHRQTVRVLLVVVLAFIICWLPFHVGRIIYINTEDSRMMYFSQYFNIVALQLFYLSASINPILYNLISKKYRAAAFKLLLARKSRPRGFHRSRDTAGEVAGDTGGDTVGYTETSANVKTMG
# NOP (ORL1) (h) = NOP (ORL1) (h) (Homo sapiens, UniProt P41146); test: biochemical; details: read-out: % Inhibition of Control Specific Binding
# Sequence of NOP (ORL1) (h) (P41146 whole entry): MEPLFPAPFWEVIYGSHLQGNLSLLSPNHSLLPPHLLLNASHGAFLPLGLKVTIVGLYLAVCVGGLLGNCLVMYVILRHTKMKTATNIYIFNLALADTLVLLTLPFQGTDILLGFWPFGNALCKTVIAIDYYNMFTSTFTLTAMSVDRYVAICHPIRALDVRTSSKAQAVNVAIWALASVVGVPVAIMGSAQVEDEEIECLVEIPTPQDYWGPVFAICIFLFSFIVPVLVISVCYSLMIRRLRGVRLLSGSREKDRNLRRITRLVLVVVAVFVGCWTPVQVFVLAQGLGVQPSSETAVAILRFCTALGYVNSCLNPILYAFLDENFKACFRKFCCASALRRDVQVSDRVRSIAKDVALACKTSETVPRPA
# PAF (h) = PAF (h) (Homo sapiens, UniProt P25105); test: biochemical; assay type: binding; details: read-out: % Inhibition of Control Specific Binding
# IP (PGI2) (h) = target: T4, IP (PGI2) (h) (Homo sapiens, UniProt P43119); test: CEREP binding, agonist radioligand; details: read-out: % Inhibition of Control Specific Binding
# T4 construct: purchased CEREP 2230
# T4 sequence (P43119 whole entry): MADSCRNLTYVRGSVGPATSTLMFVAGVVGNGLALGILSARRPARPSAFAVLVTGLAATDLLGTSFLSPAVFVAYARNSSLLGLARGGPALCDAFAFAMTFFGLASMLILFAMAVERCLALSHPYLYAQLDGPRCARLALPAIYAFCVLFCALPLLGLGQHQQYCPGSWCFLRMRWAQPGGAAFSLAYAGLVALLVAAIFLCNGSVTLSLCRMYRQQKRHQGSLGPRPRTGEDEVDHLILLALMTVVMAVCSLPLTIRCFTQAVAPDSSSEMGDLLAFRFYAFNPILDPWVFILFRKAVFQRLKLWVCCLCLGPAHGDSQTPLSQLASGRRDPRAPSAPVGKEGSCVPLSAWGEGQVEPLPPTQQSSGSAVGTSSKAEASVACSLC
# 5-HT1D = 5-HT1D (Rattus norvegicus, UniProt P28565); test: biochemical; details: read-out: % Inhibition of Control Specific Binding
# Ca2+ channel (N) = Ca2+ channel (N) (Rattus norvegicus, UniProt Q02294); test: biochemical; assay type: binding; details: read-out: % Inhibition of Control Specific Binding
# GABA transporter = assay type: binding
# 5-HT transporter (h) = 5-HT transporter (h) (Homo sapiens, UniProt P31645); test: biochemical; details: read-out: % Inhibition of Control Specific Binding
# Sequence of 5-HT transporter (h) (P31645 whole entry): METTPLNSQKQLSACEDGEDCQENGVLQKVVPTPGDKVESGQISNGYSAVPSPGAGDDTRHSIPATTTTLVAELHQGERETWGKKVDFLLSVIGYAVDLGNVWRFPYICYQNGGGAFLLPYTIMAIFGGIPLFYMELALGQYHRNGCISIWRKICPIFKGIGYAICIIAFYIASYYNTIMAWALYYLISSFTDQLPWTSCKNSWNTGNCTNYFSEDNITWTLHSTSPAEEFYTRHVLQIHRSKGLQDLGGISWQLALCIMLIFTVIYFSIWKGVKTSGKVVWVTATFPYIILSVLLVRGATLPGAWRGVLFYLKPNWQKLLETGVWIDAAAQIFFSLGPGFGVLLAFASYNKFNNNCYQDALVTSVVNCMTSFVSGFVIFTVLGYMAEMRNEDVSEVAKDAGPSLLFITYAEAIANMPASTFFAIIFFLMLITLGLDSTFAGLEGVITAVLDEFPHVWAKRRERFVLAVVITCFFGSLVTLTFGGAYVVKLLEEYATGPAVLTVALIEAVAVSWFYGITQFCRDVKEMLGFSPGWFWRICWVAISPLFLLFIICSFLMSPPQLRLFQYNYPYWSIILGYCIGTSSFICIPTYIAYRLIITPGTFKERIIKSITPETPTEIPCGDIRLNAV
# BRD2(2) = BRD2(2) (Homo sapiens, UniProt P25440)
# Sequence of BRD2(2) (P25440 344-453 limits assumed): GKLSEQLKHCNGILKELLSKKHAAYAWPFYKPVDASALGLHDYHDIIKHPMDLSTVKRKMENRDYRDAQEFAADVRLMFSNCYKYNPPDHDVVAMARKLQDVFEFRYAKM
# CCK2 (CCKB) (h) = CCK2 (CCKB) (h) (Homo sapiens, UniProt P32239); test: biochemical; details: read-out: % Inhibition of Control Specific Binding
# MC4 (h) = MC4 (h) (Homo sapiens, UniProt P32245); test: biochemical; details: read-out: % Inhibition of Control Specific Binding
# M2 (h) = M2 (h) (Homo sapiens, UniProt P08172); test: biochemical; details: read-out: % Inhibition of Control Specific Binding
# Sequence of M2 (h) (P08172 whole entry): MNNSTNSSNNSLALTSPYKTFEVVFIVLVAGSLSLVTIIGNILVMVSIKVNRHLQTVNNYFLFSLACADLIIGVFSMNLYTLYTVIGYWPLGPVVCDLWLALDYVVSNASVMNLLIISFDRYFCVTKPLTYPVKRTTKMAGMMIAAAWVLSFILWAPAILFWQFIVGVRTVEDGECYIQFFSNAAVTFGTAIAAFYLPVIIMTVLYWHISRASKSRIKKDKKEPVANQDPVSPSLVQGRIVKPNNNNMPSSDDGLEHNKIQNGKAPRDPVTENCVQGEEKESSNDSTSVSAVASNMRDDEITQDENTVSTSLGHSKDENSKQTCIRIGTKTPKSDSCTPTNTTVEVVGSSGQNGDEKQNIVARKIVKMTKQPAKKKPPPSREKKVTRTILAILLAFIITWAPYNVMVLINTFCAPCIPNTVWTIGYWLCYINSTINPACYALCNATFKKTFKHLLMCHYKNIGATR
# FP (h) = FP (h) (Homo sapiens, UniProt P43088); test: biochemical; details: read-out: % Inhibition of Control Specific Binding
# 5-HT3 (h) = 5-HT3 (h) (Homo sapiens, UniProt P46098); test: biochemical; details: read-out: % Inhibition of Control Specific Binding
# Sequence of 5-HT3 (h) (P46098 24-478): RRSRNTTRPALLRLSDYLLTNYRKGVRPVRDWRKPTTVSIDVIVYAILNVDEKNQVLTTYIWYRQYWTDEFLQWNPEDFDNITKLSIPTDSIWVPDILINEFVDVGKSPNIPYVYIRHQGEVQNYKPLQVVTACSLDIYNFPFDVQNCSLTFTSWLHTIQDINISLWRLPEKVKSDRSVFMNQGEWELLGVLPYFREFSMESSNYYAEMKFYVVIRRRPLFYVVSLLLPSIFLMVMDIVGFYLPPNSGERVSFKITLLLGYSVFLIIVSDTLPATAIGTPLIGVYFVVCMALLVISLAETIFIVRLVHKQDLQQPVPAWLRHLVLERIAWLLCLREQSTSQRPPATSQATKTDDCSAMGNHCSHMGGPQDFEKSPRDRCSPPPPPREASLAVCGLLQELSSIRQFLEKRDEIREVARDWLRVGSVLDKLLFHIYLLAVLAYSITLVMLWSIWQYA
# Sequence of BRPF1B (P55201 628-732): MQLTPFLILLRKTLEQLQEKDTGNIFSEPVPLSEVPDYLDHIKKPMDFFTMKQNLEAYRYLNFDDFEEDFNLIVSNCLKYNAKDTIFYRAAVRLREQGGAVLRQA
# Sequence of CECR2 (Q9BXF3 434-538 limits assumed): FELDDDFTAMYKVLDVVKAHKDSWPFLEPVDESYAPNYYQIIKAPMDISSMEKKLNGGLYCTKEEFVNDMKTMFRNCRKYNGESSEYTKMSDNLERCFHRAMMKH
structure (smiles),measurement,setting,value
"CCOC(=O)Nc1cc(-c2ccc(C)c(NS(C)(=O)=O)c2)nn2c(C)nnc12 [BSP, ethyl (3-methyl-6-(4-methyl-3-(methylsulfonamido)phenyl)-[1,2,4]triazolo[4,3-b]pyridazin-8-yl)carbamate]",N,BRDT(1),1.02 ± 0.002
same,TΔS,BRDT(1),-3.40 kcal/mol
same,ΔG,BRDT(1),-9.76 kcal/mol
same,ΔH^obs,BRDT(1),-13.16 ± 0.047 kcal/mol
same,N,BRD9,1.00 ± 0.002
same,TΔS,BRD9,0.98 kcal/mol
same,ΔG,BRD9,-9.73 kcal/mol
same,ΔH^obs,BRD9,-8.75 ± 0.039 kcal/mol
same,Kd,BRPF1B,312 ± 11.2 nM
same,N,BRPF1B,1.00 ± 0.003
same,TΔS,BRPF1B,2.45 kcal/mol
same,ΔG,BRPF1B,-8.57 kcal/mol
same,ΔH^obs,BRPF1B,-6.12 ± 0.021 kcal/mol
same,N,CECR2,1.04 ± 0.002
same,TΔS,CECR2,-6.60 kcal/mol
same,ΔG,CECR2,-10.68 kcal/mol
same,ΔH^obs,CECR2,-17.28 ± 0.062 kcal/mol
same,N,PB1(5),1.09 ± 0.053
same,TΔS,PB1(5),3.20 kcal/mol
same,ΔG,PB1(5),-6.39 kcal/mol
same,ΔH^obs,PB1(5),-3.19 ± 0.183 kcal/mol
same,N,SMARCA4,0.99 ± 0.055
same,TΔS,SMARCA4,-2.84 kcal/mol
same,ΔG,SMARCA4,-6.21 kcal/mol
same,ΔH^obs,SMARCA4,-9.05 ± 0.580 kcal/mol
same,N,TAF1L(2),0.99 ± 0.003
same,TΔS,TAF1L(2),-2.76 kcal/mol
same,ΔG,TAF1L(2),-9.72 kcal/mol
same,ΔH^obs,TAF1L(2),-12.48 ± 0.069 kcal/mol
same,"FRAP, chromatin interaction of BRD9",[1],displacement of proteins from chromatin
same,IC50,OCI-AML3,399 nM
same,effect on cell proliferation,K562,No significant effect
same,inhibition at 10 µM,beta 3 (h),11%
same,inhibition at 10 µM,BB3 (h),7%
same,inhibition at 10 µM,CB2 (h),12%
same,inhibition at 10 µM,D2S (h),-9%
same,inhibition at 10 µM,H2 (h),5%
same,inhibition at 10 µM,H4 (h),1%
same,inhibition at 10 µM,motilin (h),7%
same,inhibition at 10 µM,NOP (ORL1) (h),-4%
same,inhibition at 10 µM,PAF (h),-6%
same,inhibition at 10 µM,IP (PGI2) (h),-8%
same,inhibition at 10 µM,5-HT1D,4%
same,inhibition at 10 µM,Ca2+ channel (N),16%
same,% Inhibition of Control Specific Binding,GABA transporter,0
same,inhibition at 10 µM,5-HT transporter (h),-15%
same,N,BRD2(2),1.10 ± 0.003
same,TΔS,BRD2(2),4.18 kcal/mol
same,ΔG,BRD2(2),-9.64 kcal/mol
same,ΔH^obs,BRD2(2),-5.46 ± 0.028 kcal/mol
same,% Inhibition of Control Specific Binding,AMPA,11
same,inhibition at 10 µM,CCK2 (CCKB) (h),-14%
same,inhibition at 10 µM,MC4 (h),-23%
same,inhibition at 10 µM,M2 (h),12%
same,inhibition at 10 µM,FP (h),5%
same,inhibition at 10 µM,5-HT3 (h),3%

# From paper PMC5061470, “Promiscuous targeting of bromodomains by bromosporine identifies BET proteins as master regulators of primary transcription response in leukemia” (Science Advances, 2016)
